ChEMBL document CHEMBL3137667, “[Drug-induced liver injury; fourteenth updated edition of the bibliographic database of liver injuries and related drugs]” (Gastroenterol Clin Biol, 2004)

Tests used:
[1] = Highest frequency of moderate liver toxicity observed during clinical trials, expressed as a percentage. [column '% BIOL' in source]; conditions: human
[2] = Highest frequency of acute liver toxicity observed during clinical trials, expressed as a percentage. [column '% AIGUE' in source]; conditions: human
[3] = human, serum
[4] = human, serum; remark: listed apart in the source
[5] = human
[6] = human; remark: listed apart in the source
[7] = human; remark: listed apart in the source
[8] = human, serum, 4383 h
[9] = human; remark: listed apart in the source
[10] = human; remark: listed apart in the source
[11] = human; remark: listed apart in the source
[12] = human; remark: listed apart in the source
[13] = human; remark: listed apart in the source
[14] = human; remark: listed apart in the source
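Wherever Hepatotoxicity (association with vascular disease) is given: count of indexed literature references reporting vascular liver injury in humans, e.g. peliosis hepatitis, hepatic veno-occlusive disease or Budd-Chiari syndrome.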
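Wherever Hepatotoxicity (benign tumour) is given: value is a count of indexed literature references citing a benign tumour confirmed by histopathology.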
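Wherever Hepatotoxicity (choleostasis) is given: human cholestatic liver injury, shown by histopathology or by peak ALT or AST elevation over alkaline phosphatase ratio below 2, value counts indexed literature reports.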
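Wherever Hepatotoxicity (chronic liver disease) is given: chronic liver injury confirmed by histopathology or persistently raised serum aminotransferase activity beyond 6 months, value given as the count of indexed literature references.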
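Wherever Hepatotoxicity (cirrhosis) is given: value is a count of indexed literature references reporting cirrhosis confirmed by histopathology.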
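Wherever Hepatotoxicity (cytolytic) is given: human cytolytic liver injury, shown by histopathology or by a ratio above 5 of peak ALT or AST elevation to alkaline phosphatase elevation, value counts indexed references.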
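Wherever Hepatotoxicity (granulomatous hepatitis) is given: value is a count of indexed literature references reporting granulomatous liver disease confirmed by histopathology.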
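Wherever Hepatotoxicity (malignant tumour) is given: malignant tumour confirmed by histopathology, value gives the count of indexed literature references reporting it.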
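Wherever Hepatotoxicity (severe hepatitis) is given: human clinical data: severe hepatitis, meaning potentially life-threatening liver failure or clinically observed cases, the value counts how many indexed literature references report it.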
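Wherever Hepatotoxicity (steatosis) is given: steatosis confirmed by histopathology, value is the count of indexed references.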

SMILES	Hepatotoxicity (moderate) [1]	Hepatotoxicity (acute) [2]	Hepatotoxicity (moderate) [3]	Hepatotoxicity (acute) [4]	Hepatotoxicity (cytolytic) [5]	Hepatotoxicity (choleostasis) [6]	Hepatotoxicity (severe hepatitis) [7]	Hepatotoxicity (chronic liver disease) [8]	Hepatotoxicity (cirrhosis) [9]	Hepatotoxicity (granulomatous hepatitis) [10]	Hepatotoxicity (association with vascular disease) [11]	Hepatotoxicity (steatosis) [12]	Hepatotoxicity (malignant tumour) [13]	Hepatotoxicity (benign tumour) [14]
O=C(O)[C@@H](S)[C@@H](S)C(=O)O	56.7%	0%	3	0	0	0	0	0	0	0	0	0	0	0
CO[C@@H]1O[C@H](CO)[C@H](O)[C@H](O[C@@H]2O[C@@H](C(=O)O)[C@@H](OC)[C@H](O)[C@H]2O)[C@H]1NC(C)=O	0%	0%	1	0	0	0	0	0	0	0	0	0	0	0
Cc1c(C)c2ccc(OCCCN3CCN(Cc4ccc(Cl)cc4)CC3)cc2oc1=O	2%	0%	1	0	0	0	0	0	0	0	0	0	0	0
O=C(Nc1cccc2c(=O)cc(-c3nnn[nH]3)oc12)c1ccc(OCCCCc2ccccc2)cc1	2.1%	0%	1	0	0	0	0	0	0	0	0	0	0	0
CC(=O)N[C@@H]1[C@H](Oc2c3cc4cc2Oc2ccc(cc2Cl)[C@@H](O[C@@H]2O[C@@H](CO)[C@@H](O)[C@H](O)[C@@H]2NC(C)=O)[C@@H]2NC(=O)[C@H](NC(=O)[C@@H]4NC(=O)[C@H]4NC(=O)[C@@H](Cc5ccc(c(Cl)c5)O3)NC(=O)[C@H](N)c3ccc(O)c(c3)Oc3cc(O)cc4c3)c3ccc(O)c(c3)-c3c(O[C@H]4O[C@H](CO)[C@@H](O)[C@@H](O)[C@@H]4O)cc(O)cc3[C@@H](C(=O)O)NC2=O)O[C@@H](CO)[C@@H](O)[C@@H]1O	26.9%	0.9%	36	4	1	1	0	0	0	0	0	0	0	0
CNC(=O)[C@@H](NC(=O)[C@H](CC(C)C)[C@H](O)C(=O)NO)C(C)(C)C	0%	0%	1	0	0	0	0	0	0	0	0	0	0	0
CC(CCC(=O)O)C1CC[C@H]2[C@@H]3CC[C@@H]4C[C@H](O)CC[C@]4(C)[C@H]3CC[C@]12C (stereo not given in full)	11.1%	0%	1	0	0	0	0	0	0	0	0	0	0	0
CC(OC(=O)OC1CCCCC1)OC(=O)C1=C(CSc2nnnn2CCN(C)C)CS[C@@H]2[C@H](NC(=O)Cc3csc(N)n3)C(=O)N12 (stereo not given in full)	28.6%	0%	25	0	0	0	0	0	0	0	0	0	0	0
CO/N=C(\C(=O)N[C@@H]1C(=O)N2C(C(=O)OCOC(=O)C(C)(C)C)=C(Cn3nnc(C)n3)CS[C@H]12)c1csc(N)n1	3.3%	0%	9	0	0	0	0	0	0	0	0	0	0	0
CN1CC[C@@H]2Nc3ccccc3[C@@H]2C1.Cl.Cl	0%	0%	0	1	0	1	0	0	0	0	0	0	0	0
CC(=N)N1CC[C@H](SC2=C(C(=O)O)N3C(=O)[C@H]([C@@H](C)O)[C@H]3C2)C1.O=C(O)CCNC(=O)c1ccccc1	38.5%	0%	60	1	0	1	0	0	0	0	0	0	0	0
COc1ccc(/C=C/C(=O)Nc2ccccc2C(=O)O)cc1OC	7.5%	0%	6	1	0	0	0	0	0	0	0	0	0	0
CCN1CCN(C(=O)N[C@@H](C(=O)N[C@@H]2C(=O)N3[C@@H]2SC(C)(C)[C@@H]3C(=O)O)c2ccccc2)C(=O)C1=O.C[C@]1(Cn2ccnn2)[C@H](C(=O)O)N2C(=O)C[C@H]2S1(=O)=O	33.3%	0%	46	0	0	0	0	0	0	0	0	0	0	0
CCOC(=O)[C@H](CCc1ccccc1)N[C@@H](C)C(=O)N(CC(=O)O)C1Cc2ccccc2C1	1.1%	0%	1	0	0	0	0	0	0	0	0	0	0	0
[Se]	0%	0%	0	0	0	0	0	0	0	0	0	1	0	0
